Legend:
Type in all cases: in vivo
[1] = system: Abutilon theophrasti (ABUTH); assay: Post-emergence herbicidal action, greenhouse pot test
Procedure: (§1) Seeds of monocotyledonous and dicotyledonous weeds and crop plants were placed in sandy loam in plastic or wood-fibre pots, covered with soil and cultivated in a greenhouse under controlled growth conditions. 2 to 3 weeks after sowing, the test plants were treated at the one-leaf stage. The compounds of the invention, formulated in the form of wettable powders (WP) or as emulsion concentrates (EC), were then sprayed onto the green parts of the plants as aqueous suspension or emulsion with addition of 0.5% additive at a water application rate of 600 l/ha (converted). After the test plants had been kept in the greenhouse under optimum growth conditions for about 3 weeks, the activity of the preparations was rated visually in comparison to untreated controls. For example, 100% activity=the plants have died, 0% activity=like control plants.

[2] = system: Alopecurus myosuroides (ALOMY); assay: as above
Procedure: as §1

[3] = system: Amaranthus retroflexus (AMARE); assay: as above
Procedure: as §1

[4] = system: Bassia scoparia (KCHSC); assay: as above
Procedure: as §1

[5] = system: Digitaria sanguinalis (DIGSA); assay: as above
Procedure: as §1

[6] = system: Echinochloa crus-galli (ECHCG); assay: as above
Procedure: as §1

[7] = system: Lolium rigidum (LOLRI); assay: as above
Procedure: as §1

[8] = system: Pharbitis purpurea (PHBPU); assay: as above
Procedure: as §1

[9] = system: Polygonum convolvulus (POLCO); assay: as above
Procedure: as §1

[10] = system: Setaria viridis (SETVI); assay: as above
Procedure: as §1

[11] = system: Tripleurospermum inodorum (MATIN); assay: as above
Procedure: as §1

[12] = system: Veronica persica (VERPE); assay: as above
Procedure: as §1

[13] = system: Viola tricolor (VIOTR); assay: as above
Procedure: as §1

[14] = system: Triticum aestivum (TRZAS); assay: Post-emergence crop plant compatibility, greenhouse pot test; conditions: crop plant, post-emergence, 1.25 g/ha
Procedure: as §1
The observed effects on selected crop plants are reported here in comparison to the untreated controls (values in %).

Row | SMILES | Post-emergence effect at 5 g/ha against ABUTH in % [1] [%] | Post-emergence effect at 20 g/ha against ABUTH in % [1] [%] | Post-emergence effect at 20 g/ha against ALOMY in % [2] [%] | Post-emergence effect at 1.25 g/ha against AMARE in % [3] [%] | Post-emergence effect at 5 g/ha against AMARE in % [3] [%] | Post-emergence effect at 20 g/ha against AMARE in % [3] [%] | Post-emergence effect at 1.25 g/ha against KCHSC in % [4] [%] | Post-emergence effect at 5 g/ha against KCHSC in % [4] [%] | Post-emergence effect at 20 g/ha against KCHSC in % [4] [%] | Post-emergence effect at 5 g/ha against DIGSA in % [5] [%] | Post-emergence effect at 20 g/ha against DIGSA in % [5] [%] | Post-emergence effect at 5 g/ha against ECHCG in % [6] [%] | Post-emergence effect at 20 g/ha against ECHCG in % [6] [%] | Post-emergence effect at 20 g/ha against LOLRI in % [7] [%] | Post-emergence effect at 5 g/ha against PHBPU in % [8] [%] | Post-emergence effect at 20 g/ha against PHBPU in % [8] [%] | Post-emergence effect at 20 g/ha against POLCO in % [9] [%] | Post-emergence effect at 1.25 g/ha against SETVI in % [10] [%] | Post-emergence effect at 5 g/ha against SETVI in % [10] [%] | Post-emergence effect at 20 g/ha against SETVI in % [10] [%] | also measured
1 | Cn1c(C(F)(F)F)cc(=O)n(-c2cc(Oc3ccccc3OCC(=O)OCC3(F)CC3)c(Cl)cc2F)c1=O [I.7-6] | 100 | 100 | 100 | 100 | 100 | 100 | 100 | 100 | 100 | 100 | 100 | 100 | 100 | 80 | 100 | 100 | 100 | 100 | 100 | 100 | Post-emergence effect at 1.25 g/ha against ABUTH in % [1]: 100%; Post-emergence effect at 1.25 g/ha against ALOMY in % ([2]; 1.25 g/ha): 80%; Post-emergence effect at 5 g/ha against ALOMY in % [2]: 100%; Post-emergence effect at 1.25 g/ha against DIGSA in % [5]: 100%; Post-emergence effect at 5 g/ha against POLCO in % [9]: 100%; Post-emergence effect at 20 g/ha against MATIN in % [11]: 100%; Post-emergence effect at 1.25 g/ha against VERPE in % [12]: 100%; Post-emergence effect at 5 g/ha against VERPE in % [12]: 100%; Post-emergence effect at 20 g/ha against VERPE in % [12]: 100%; Post-emergence effect at 1.25 g/ha against VIOTR in % [13]: 100%; Post-emergence effect at 5 g/ha against VIOTR in % [13]: 100%; Post-emergence effect at 20 g/ha against VIOTR in % [13]: 100%; Post-emergence effect at 1.25 g/ha against TRZAS in % [14]: 20%
2 | Cn1c(C(F)(F)F)cc(=O)n(-c2cc(Oc3ccccc3OCC(=O)OCC3CC3(C)C)c(Cl)cc2F)c1=O (stereo not shown) [I.7-9] | 100 | 100 | 100 | 100 | 100 | 100 | 90 | 100 | 100 | 100 | 100 | 100 | 100 | 90 | 100 | 100 | 100 | 100 | 100 | 100 | Post-emergence effect at 1.25 g/ha against ABUTH in % [1]: 100%; Post-emergence effect at 1.25 g/ha against DIGSA in % [5]: 100%; Post-emergence effect at 1.25 g/ha against ECHCG in % ([6]; 1.25 g/ha): 80%; Post-emergence effect at 1.25 g/ha against PHBPU in % [8]: 100%; Post-emergence effect at 20 g/ha against MATIN in % [11]: 100%; Post-emergence effect at 1.25 g/ha against VERPE in % [12]: 90%; Post-emergence effect at 5 g/ha against VERPE in % [12]: 100%; Post-emergence effect at 20 g/ha against VERPE in % [12]: 100%; Post-emergence effect at 1.25 g/ha against VIOTR in % [13]: 100%; Post-emergence effect at 5 g/ha against VIOTR in % [13]: 100%; Post-emergence effect at 20 g/ha against VIOTR in % [13]: 100%; Post-emergence effect at 1.25 g/ha against TRZAS in % [14]: 20%
3 | Cn1c(C(F)(F)F)cc(=O)n(-c2cc(Oc3ccccc3OCC(=O)OCC3(C#N)CC3)c(Cl)cc2F)c1=O [I.7-7] | 100 | 100 | 100 | 100 | 100 | 100 | 100 | 100 | 100 | 100 | 100 | 100 | 100 | 100 | 100 | 100 | 100 | 100 | 100 | 100 | Post-emergence effect at 5 g/ha against ALOMY in % [2]: 80%; Post-emergence effect at 1.25 g/ha against PHBPU in % [8]: 100%; Post-emergence effect at 5 g/ha against POLCO in % [9]: 100%; Post-emergence effect at 5 g/ha against MATIN in % ([11]; 5 g/ha): 100%; Post-emergence effect at 20 g/ha against MATIN in % [11]: 100%; Post-emergence effect at 1.25 g/ha against VERPE in % [12]: 100%; Post-emergence effect at 5 g/ha against VERPE in % [12]: 100%; Post-emergence effect at 20 g/ha against VERPE in % [12]: 100%; Post-emergence effect at 1.25 g/ha against VIOTR in % [13]: 100%; Post-emergence effect at 5 g/ha against VIOTR in % [13]: 100%; Post-emergence effect at 20 g/ha against VIOTR in % [13]: 100%; Post-emergence effect at 1.25 g/ha against TRZAS in % [14]: 10%

Source: patent US20260138958A1, “SUBSTITUTED N-PHENYLURACILS AND SALTS THEREOF, AND USE THEREOF AS HERBICIDAL ACTIVE SUBSTANCES” (Bayer Aktiengesellschaft, priority 2022, published 2026)
